The values that follow come from patent publication US4738954A, “Novel N^6 -substituted-5'-oxidized adenosine analogs” (Warner-Lambert Company, priority 1985, dated 1988).

The target of one data set is T1, adenosine A1 receptor (Rattus norvegicus, UniProt P25099).
T1 construct: Whole brain minus cerebellum and brainstem from male Long Evans rats; from tissue; host or cells: rat whole brain minus cerebellum and brainstem, membranes
T1 sequence (P25099 1-326): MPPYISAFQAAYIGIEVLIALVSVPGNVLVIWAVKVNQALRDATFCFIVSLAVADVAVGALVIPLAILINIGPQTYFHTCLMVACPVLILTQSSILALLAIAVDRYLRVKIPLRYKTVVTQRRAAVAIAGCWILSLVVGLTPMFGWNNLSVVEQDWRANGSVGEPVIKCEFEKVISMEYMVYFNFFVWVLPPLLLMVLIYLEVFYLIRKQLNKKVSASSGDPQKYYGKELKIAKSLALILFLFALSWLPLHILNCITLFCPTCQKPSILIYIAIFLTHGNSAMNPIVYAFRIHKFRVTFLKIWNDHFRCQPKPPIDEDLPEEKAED
Kind of data set: Adenosine Receptor Binding--A1 Receptor Affinity (RBA1), [3H]-CHA displacement. The conditions noted are these: 1.0 nM [3H]-CHA, rat brain, 25° C, 1 h; read-out: RBA-1 (IC50, A1 receptor affinity). As for the experimental part: Adenosine Receptor Binding--A1 Receptor Affinity (RBA1)
Whole brain minus cerebellum and brainstem from male Long Evans rats (105-200 g) was homogenized in 30 volumes of ice-cold 0.05M Tris-HCl buffer pH 7.7 using a Brinkman Polytron PT-10, (setting number 6 for 20 seconds) and centrifuged for ten minutes at 20,000×g (Sorvall RC-2), 4° C. The supernatant was discarded, and the pellet was resuspended and centrifuged as before. The pellet was resuspended in 20 ml Tris-HCl buffer containing two International Units/ml of adenosine deaminase (Sigma type III from calf intestinal mucosa), incubated at 37° C. for 30 minutes, then subsequently at 0° C. for ten minutes. The homogenate was again centrifuged, and the final pellet was resuspended in ice-cold 0.05M Tris-HCl buffer pH 7.7 to a concentration of 20 mg/ml original wet tissue weight and used immediately.
Tissue homogenate (10 mg/ml) was incubated in 0.05M Tris-HCl buffer pH 7.7 containing 1.0 nM ((^3 H))-N^6 -cyclohexyladenosine ([^3 H]-CHA) with or without test agents in triplicate for one hour at 25° C. Incubation volume was 2 ml. Unbound [^3 H]-CHA was separated by rapid filtration under reduced pressure through Whatman glass fiber (GF/B) filters. The filters were rinsed three times with 5 ml of ice cold 0.05M Tris-HCl buffer pH 7.7. The radio-labeled ligand retained on the filter was measured by liquid scintillation spectrophotometry after shaking the filters for one hour or longer on a mechanical shaker in 10 ml of Beckman Ready-Solv HP scintillation cocktail.
Nonspecific binding was defined as the binding which occured in the presence of 1 mM theophylline. The concentration of test agent which inhibited 50% of the specific binding (IC50) was determined by nonlinear computer curve fit. The Scatchard plot was calculated by linear regression of the line obtained by plotting the amount of radioligand bound (pmoles/gram of tissue) versus [formula] Since the amount of radioligand bound was a small fraction of the total amount added, free radioligand was defined as the concentration of (nM) of radioligand added to the incubation mixture. The Hill coefficient was calculated by linear regression of the line obtained by plotting the log of the bound radioligand vs the log of the [formula] The maximal number of binding sites (Bmax) was calculated from the Scatchard plot.

In another data set the target is T2, adenosine A2 receptor (Rattus norvegicus, UniProt P30543).
T2 construct: Brains were thawed and then kept on ice while the striata were dissected out; tissue Pel-Freez (Rogers, Arkansas) (rat brains); host or cells: rat striatum, membranes
T2 sequence (P30543 whole entry): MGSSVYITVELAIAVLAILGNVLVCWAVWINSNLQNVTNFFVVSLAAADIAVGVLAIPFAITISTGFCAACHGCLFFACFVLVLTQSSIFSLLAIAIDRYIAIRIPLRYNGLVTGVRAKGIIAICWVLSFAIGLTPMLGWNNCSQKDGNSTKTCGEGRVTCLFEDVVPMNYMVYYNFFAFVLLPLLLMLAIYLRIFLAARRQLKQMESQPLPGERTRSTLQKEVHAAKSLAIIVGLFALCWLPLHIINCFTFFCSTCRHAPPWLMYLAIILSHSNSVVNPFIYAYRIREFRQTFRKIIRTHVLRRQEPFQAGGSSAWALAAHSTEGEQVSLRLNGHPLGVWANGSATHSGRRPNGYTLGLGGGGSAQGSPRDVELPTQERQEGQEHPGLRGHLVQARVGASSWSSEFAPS
Kind of data set: Adenosine Receptor Binding--A2 Receptor Affinity (RBA2), [3H]NECA displacement. It counts as rat (Sprague-Dawley striatal membranes). The conditions noted are these: 4 nM [3H]NECA + 50 nM N6-cyclopentyladenosine, rat striatum, 25° C, 60 min; read-out: RBA-2 (IC50, A2 receptor affinity). As for the experimental part:
Adenosine Receptor Binding--A2 Receptor Affinity (RBA2)
Brains from 200-500 g mixed sex Sprague-Dawley rats were purchased from Pel-Freez (Rogers, Arkansas). Fresh brains from male Long-Evans hooded rats (Blue Spruce Farms, Altamont, NY) gave essentially identical results. Brains were thawed and then kept on ice while the striata were dissected out. Striata were disrupted in 10 vol of ice-cold 50 mM Tris.HCl (pH 7.7 at 25° C., pH 8.26 at 5° C.) (Tris) for 30 seconds in a Polytron PT-10 (Brinkmann) at setting 5. The suspension was centrifuged at 50,000×g for ten minutes, the supernatant discarded, the pellet resuspended in 10 vol ice-cold Tris as above, recentrifuged, resuspended at 1 g/5 ml, and stored in plastic vials at -70° C. (stable for at least six months). When needed, tissue was thawed at room temperature, disrupted in a Polytron, and kept on ice until used.
All incubations were for 60 minutes at 25° C. in 12×75 mm glass tubes containing 1 ml Tris with 5 mg original tissue weight of rat weight of rat striatal membranes, 4 nM [^3 H]-N-ethyl adenosine-5'-carboxamide ([^3 H]NECA), 50 nM N^6 -cyclopentyladenosine (to eliminate A1 receptor binding), 10 mM MgCl2, 0.1 units/ml of adenosine deaminase and 1% dimethylsulfoxide. N^6 -Cyclopentyladenosine was dissolved at 10 mM in 0.02N HCl and diluted in Tris. Stock solutions and dilutions of N^6 -cyclopentyladenosine could be stored at -20° C. for several months. Test compounds were dissolved at 10 mM in dimethylsulfoxide on the same day as the experiment, and diluted in dimethylsulfoxide to 100× the final incubation concentration. Control incubations received an equal volume (10 μl) of dimethylsulfoxide; the resulting concentration of dimethylsulfoxide had no effect on binding. [^3 H]NECA was diluted to 40 nM in Tris. The membrane suspension (5 mg/0.79 ml) contained sufficient MgCl2 and adenosine deaminase to give 10 mM and 0.1 units/ml, respectively, final concentration in the incubation. […] After all additions, the rack of tubes was vortexed, and the tubes were then incubated for 60 min at 25° C. in a shaking water bath. The rack of tubes was vortexed an additional time halfway through the incubation.
Incubations were terminated by filtration through 2.4 cm GF/B filters under reduced pressure. Each tube was filtered as follows: the contents of the tube were poured on the filter, 4 ml of ice-cold Tris were added to the tube and the contents poured onto the filter, and the filter was washed twice with 4 ml of ice-cold Tris. The filtration was complete in about twelve seconds. Filters were put in scintillation vials, 8 ml of Formula 947 scintillation fluid added, and the vials left overnight, shaken, and counted in a liquid scintillation counter at 40% efficiency.
Nonspecific binding was defined as binding in the presence of 100 μM N^6 -cyclopentyladenosine, and specific binding was defined as total binding minus nonspecific binding. The IC50 was calculated by weighted nonlinear least squares curve-fitting to the mass-action equation. [formula] where Y is cpm bound
T is cpm total binding without drug
S is cpm specific binding without drug
D is the concentration of drug and
K is the IC50 of the drug
Weighting factors were calculated under the assumption that the standard deviation was proportional to the predicted value of Y. Nonspecific binding was treated as a very large (infinite) concentration of drug in the computer analysis.

In data set [1] the test system is animals falling off the inverted screen. Nature of the data set: Activity and Screen Test done orally in rats: screen test. It counts as in vivo. The protocol: A two part testing procedure is started one hour postinjection. First, the screen test (ST) is performed (see Pharmac. Biochem. Behav. 6, 351-353, 1977). Briefly this test consists of placing mice on individual wire screens which are then rotated 180 degrees at the start of a 60 second observation period. The number of mice falling off the inverted screen is recorded.
(§1) The data obtained from the screen test are expressed as percent of mice falling off the screen. Data derived from locomotor activity of drug treated mice are compared to the activity of vehicle treated animals and are expressed as percent inhibition of spontaneous locomotion. All percentages reported for inhibition of locomotion (LI) are based upon data accumulated for one hour. Both phases of testing are graded: A=60-100%; C=31-59%; and N=0-30%. An overall dose rating is obtained by the following criteria:
(§2) *This was done orally in rats, rather than IP in mice.

For a further data set, the system named is locomotor activity. Kind of data set: Activity and Screen Test done orally in rats: locomotor activity. It counts as in vivo. The protocol:
Immediately following the screen test, the final phase of testing is initiated by placing each group of three mice in one actophotometer (Life Sciences, 22, 1067-1076, 1978). The actophotometer consists of a cylindrical chamber whose center is occupied by another cylinder which contains the illumination for six photocells located on the perimeter of the chamber. Six light-beam interruptions equal one count. Locomotor activity is recorded by computer at ten minute intervals for 60 minutes.
as §1, §2

For the molecule `CCNC(=O)[C@H]1O[C@@H](n2cnc3c(N[C@@H]4CCc5ccccc54)ncnc32)[C@H](O)[C@@H]1O` [Example 2, (R)-N-6-(1-indanyl) adenosine-5'-ethylcarboxamide], the values for the IC50 on adenosine A1 receptor and on adenosine A2 receptor were 29 nM and 161 nM, respectively.
For `CCOC(=O)[C@H]1O[C@@H](n2cnc3c(N[C@H](C)Cc4ccccc4)ncnc32)[C@H](O)[C@@H]1O` [Example 7, (R)-N-6-[(2-Phenyl-1-methyl)ethyl]-adenosine-5'-ethylcarboxylate], the IC50 was 16 nM on adenosine A1 receptor and 2680 nM on adenosine A2 receptor.
Take `CCNC(=O)[C@H]1O[C@@H](n2cnc3c(NC4CCCC4)ncnc32)[C@H](O)[C@@H]1O` [Example 4, N6-cyclopentyladenosine-5'-ethylcarboxamide]: the Screen test failure in data set [1] (0.1 mg/kg orally) is given as 22%; in data set [1] (0.3 mg/kg orally) it was 6%; in data set [1] (1 mg/kg orally) it was 17%; in data set [1] (3 mg/kg orally), 22%; in data set [1] (10 mg/kg orally), 72%. The half-inhibitory concentration (IC50) at adenosine A1 receptor came out at 0.9 nM; at adenosine A2 receptor, 198 nM. For the same molecule, the “Inhibition of locomotor activity” value turned out to be 33% with locomotor activity (0.1 mg/kg orally); 36% in the data set on locomotor activity (0.3 mg/kg orally); 81% in the data set with locomotor activity (1 mg/kg orally); 84% in the data set on locomotor activity (3 mg/kg orally); 84% in the data set with locomotor activity (10 mg/kg orally).
As to `CCNC(=O)[C@H]1O[C@@H](n2cnc3c(NC4CC5CCC4C5)ncnc32)[C@H](O)[C@@H]1O` (relative stereo) [Example 9, N-6-Norbornyladenosine-5'ethylcarboxamide], the values for the Screen test failure in data set [1] (0.1 mg/kg orally), in data set [1] (0.3 mg/kg orally) and in data set [1] (1 mg/kg orally) were 33%, 11% and 44%, respectively. Also, the “Inhibition of locomotor activity” value is listed as 37% with locomotor activity (0.1 mg/kg orally), 69% in the data set with locomotor activity (0.3 mg/kg orally) and 89% with locomotor activity (1 mg/kg orally).
